Experimental data reported in publication PMC7288168, “Synthesis and Cytotoxic Activity of Chiral Sulfonamides Based on the 2-Azabicycloalkane Skeleton” (Molecules, 2020).

Experiments:
[1] = tested on: UW228-2 cells; test: Neutral red cell viability assay, UW228-2; assay type: cell-based, human; conditions: for reduction of cell viability, UW228-2: 50 µM, 24 h, first screening; for IC50: Homo sapiens, UW228-2, 24 h treatment, neutral red, read-out: LD50 UW228-2 (MB)
Procedure: (§1) The human hepatocellular carcinoma (HCC) cell line HUH7 was purchased from ATCC (LGC standards GmbH, Wesel, Germany). The Austrian human HCC cell line AKH12 has been well characterized and was kindly provided by Prof. Bettina Grasl-Kraupp. HUH7 cells were cultured in Dulbecco’s modified Eagle’s medium (Thermo Fisher Scientific, Waltham, MA, USA) containing 10% heat-inactivated fetal bovine serum (FBS) (Sigma-Aldrich, St. Louis, MO, USA), 1% penicillin-streptomycin (10,000 U/mL) (Thermo Fisher Scientific, Waltham, MA, USA), and 1% minimum essential medium nonessential amino acids (100x) (Thermo Fisher Scientific, Waltham, MA, USA). AKH12 cells were cultured in RPMI1640 medium (Sigma-Aldrich, St. Louis, MO, USA) containing 10% heat-inactivated FBS. DAOY and D283Med (short D283) medulloblastoma (MB) cells were purchased from ATCC (LGC standards GmbH, Wesel, Germany). D425Med (short D425) and UW228-2 were provided by Thomas Ströbel from the Institute of Neurology Medical University of Vienna. The cells were cultured in Dulbecco’s modified Eagle’s medium (Sigma-Aldrich, St. Louis, MO, USA) containing 10% FBS (Sigma-Aldrich, St. Louis, MO, USA), 2% L-Glutamine (Sigma-Aldrich, St. Louis, MO, USA), and 0.2% Normocin (Sigma-Aldrich, St. Louis, MO, USA). U-251 MG (short U251) glioblastoma (GBM) cell line was purchased from Sigma-Aldrich and cultured in Dulbecco’s modified Eagle’s medium (Sigma-Aldrich, St. Louis, MO, USA) containing 10% FBS (Sigma-Aldrich, St. Louis, MO, USA), 2% L-Glutamine (Sigma-Aldrich, St. Louis, MO, USA), and 0.2% Normocin (Sigma-Aldrich, St. Louis, Missouri, USA). Human umbilical vein endothelial cells (HUVECs) were provided by Brigitte Winter from the Department of Surgery Medical University of Vienna and were grown in endothelial cell growth medium-2 BulletKitTM (Lonza, Basel, Switzerland) under standard tissue culture conditions. All cells were incubated at 37 °C in a 5% CO2 atmosphere and regularly checked for mycoplasma contamination.
(§2) Cell viability was determined using a neutral red assay, as previously described. The cells were placed in 24-well plates and grown to reach 70–80% confluency prior to treatment. After treatment for 24 h, cells were incubated with neutral red at a concentration of 50 µg/mL in serum-free medium for 2 h at 37 °C. Cells were then washed 2x and incubated with 1% acetic acid in 70% ethanol. The dye concentration was measured photometrically at 562 nm. The percentage of survival was calculated considering DMSO-treated (indicated as 0 µM concentration) cells as 100% control.
(§3) LD50 was defined as the amount of a toxic agent required to eliminate 50% of the cell population. The LD50 was calculated in each experiment from the respective dose–response curve. All experiments were performed in triplicate wells.

[2] = tested on: AKH12 cells; test: Neutral red cell viability assay, AKH12; assay type: cell-based, human; conditions: for reduction of cell viability, AKH12: 50 µM, 24 h, first screening; for IC50: Homo sapiens, 24 h treatment, neutral red, read-out: LD50 AKH12 (HCC)
Procedure: as §1, §2, §3

[3] = tested on: U251 cells; test: Neutral red cell viability assay, U251; assay type: cell-based, human; conditions: for decrease of cell viability, U251: 50 µM, 24 h, first screening; for IC50: Homo sapiens, U-251, 24 h treatment, neutral red, read-out: LD50 U251 (GBM)
Procedure: as §1, §2, §3

[4] = tested on: DAOY cells; test: Neutral red cell viability assay, DAOY; assay type: cell-based, human; conditions: for reduction of cell viability, DAOY: 50 µM, 24 h, first screening; for IC50: Homo sapiens, Daoy, 24 h treatment, neutral red, read-out: LD50 DAOY (MB)
Procedure: as §1, §2, §3

[5] = tested on: D283 cells; test: Neutral red cell viability assay, D283; assay type: cell-based, human; conditions: for reduction of cell viability, D283: 50 µM, 24 h, first screening; for IC50: Homo sapiens, D283, 24 h treatment, read-out: LD50 D283 (MB)
Procedure: as §1, §2, §3

[6] = tested on: HUVEC cells; test: Cell viability assay MTT/CellTiter Blue, HUVEC (Table 2); assay type: cell-based; conditions: Table 2, nonmalignant primary cells, 24 h, assay as for D425
Procedure: as §1, §3
(§4) One day before treatment, 2 × 10^4 of D425Med or HUVEC cells were seeded into 24-well plates and incubated at 37 °C in a humidified atmosphere containing 5% CO2.The cells were treated with different compounds for 24 h. A […] assay using the CellTiter Blue reagent (Promega, Fitchburg, Wisconsin, USA) was performed according to the manufacturer’s protocol. Experiments were performed in triplicate and repeated three times. The percentage of survival was calculated as the ratio using DMSO-treated (indicated as 0 µM concentration) cells as 100% control.

[7] = tested on: D425 cells; test: Cell viability assay (suspension cell line), MTT/CellTiter Blue, D425; assay type: cell-based, human; conditions: for reduction of cell viability, D425: 50 µM, 24 h, first screening; for IC50: Homo sapiens, read-out: LD50 D425 (MB); for D425 cell viability as compared to HUVEC cells: dose-response 24 h, Student's t-test, p ≤0.05 / p ≤0.01; for HUVEC/D425 LD50 Fold Change: ratio of LD50 HUVEC to LD50 D425
Procedure: as §1, §3, §4

[8] = tested on: HUH7 cells; test: Neutral red cell viability assay, HUH7; assay type: cell-based, human; conditions: for IC50: Homo sapiens, Huh-7, 24 h treatment, neutral red, read-out: LD50 HUH7 (HCC)
Procedure: as §1, §2, §3

[9] = tested on: HUVEC cells; test: Neutral red cell viability assay, HUVEC (Table 1); assay type: cell-based; conditions: Table 1, nonmalignant primary cells, 24 h
Procedure: as §1, §2, §3

[10] = 24 h treatment, suspension cell assay

Row | Structure (SMILES) | reduction of cell viability, UW228-2 [1] | IC50 [1] [µM] | reduction of cell viability, AKH12 [2] | IC50 [2] [µM] | decrease of cell viability, U251 [3] | IC50 [3] [µM] | reduction of cell viability, DAOY [4] | IC50 [4] [µM] | reduction of cell viability, D283 [5] | IC50 [5] [µM] | LD50 HUVEC [6] [µM] | reduction of cell viability, D425 [7] | IC50 [7, 10] [µM] | D425 cell viability as compared to HUVEC cells [7] | HUVEC/D425 LD50 Fold Change [7] | IC50 [8] [µM] | LD50 HUVEC [9] [µM] | LD50 D425 (MB) [7, 10] [µM] | reduction of cell viability, HUH7 ([8]; 50 µM, 24 h, first screening)
1 | COc1ccc(-c2ccc(S(=O)(=O)NCC3C4CCC(C4)N3C(C)c3ccccc3)cc2)cc1 [Compound 10e, 4-(4-Metoxyphenyl)-N-((2-((S)-1-phenylethyl)-(1S,3R,4R)-2-azabicyclo[2.2.1]heptane-3-yl)benzenesulfonamide] | reduced cell viability | 26.7 ± 1.52 | reduced cell viability below LD50 | 32 ± 2.21 | more than 50% | 16 ± 2 | reduced cell viability | 15.5 ± 1.62 | reduced cell viability | 15.6 ± 0.59 | 11.54 ± 2.8 | reduced cell viability | 11 ± 0.47 | significantly reduced D425 cell viability as compared to HUVEC cells | 1.05 | 16.3 ± 0.69 | 9.58 ± 1.88 | – | –
2 | CC(c1ccccc1)N1CC(NS(=O)(=O)c2cc(C(F)(F)F)cc(C(F)(F)F)c2)C2CCC1C2 [Compound 11g, 3,5-Bis(trifluoromethyl)-N-((2-((S)-1-phenylethyl)-(1S,4S,5R)-2-azabicyclo[3.2.1]octan-4-yl)benzenesulfonamide] | reduced cell viability | 20.1 ± 1.34 | reduced cell viability below LD50 | 28 ± 1.72 | more than 50% | 24.8 ± 0.92 | reduced cell viability | 20.4 ± 1.33 | reduced cell viability | 17.2 ± 0.89 | 16 ± 2.29 | reduced cell viability | 11.2 ± 1.73 | – | 1.42 | 20 ± 1.1 | 18.68 ± 1.97 | – | –
3 | COc1ccc(-c2ccc(S(=O)(=O)NC3CN(C(C)c4ccccc4)C4CCC3C4)cc2)cc1 [Compound 11e, 4-(4-Methoxyphenyl)-N-((2-((S)-1-phenylethyl)-(1S,4S,5R)-2-azabicyclo[3.2.1]octan-4-yl)benzenesulfonamide] | reduced cell viability | 23.5 ± 1.56 | reduced cell viability below LD50 | 28 ± 1.39 | more than 50% | 23.7 ± 1.69 | reduced cell viability | 24 ± 1.49 | reduced cell viability | 25.9 ± 1.9 | 36.38 ± 4.37 | reduced cell viability | 17.8 ± 1.04 | significantly reduced D425 cell viability as compared to HUVEC cells | 2.04 | 30.2 ± 2.21 | 17.58 ± 2.94 | – | –
4 | CC(c1ccccc1)N1C2CCC(C2)C1CN(CC1C2CCC(C2)N1C(C)c1ccccc1)S(=O)(=O)c1ccc(-c2ccccc2)cc1 [Compound 13a, N-Bis-(((1S,3R,4R)-2-((S)-1-phenylethyl)-2-azabicyclo[2.2.1]heptan-3-yl)methyl)-[1,1'-biphenyl]-4-sulfonamide] | reduced cell viability | 25.9 ± 1.98 | reduced cell viability below LD50 | 8 ± 0.28 | more than 50% | 27.6 ± 1.04 | reduced cell viability | 19.2 ± 1.37 | reduced cell viability | 38.4 ± 1.11 | 16 ± 0.79 | reduced cell viability | 30.5 ± 1.86 | – | 0.52 | 13.9 ± 0.49 | 12.13 ± 0.26 | – | –
5 | CC(c1ccccc1)N1C2CCC(C2)C1CNS(=O)(=O)c1ccc(-c2ccc(F)cc2)cc1 [Compound 10c, 4-(4-Fluorophenyl)-N-((2-((S)-1-phenylethyl)-(1S,3R,4R)-2-azabicyclo[2.2.1]heptane-3-yl)benzenesulfonamide] | reduced cell viability | 15.7 ± 1.32 | reduced cell viability below LD50 | 23.3 ± 2.1 | more than 50% | 21.3 ± 1.01 | reduced cell viability | 16 ± 2.1 | reduced cell viability | 27.2 ± 2.35 | 16.77 ± 0.71 | reduced cell viability | 5.38 | significantly reduced D425 cell viability as compared to HUVEC cells | 3.11 | 17.3 ± 0.98 | 13.8 ± 1.14 | 5.38 ± 0.77 | –
6 | CC(c1ccccc1)N1CC(NS(=O)(=O)c2ccc(C(F)(F)F)cc2)C2CCC1C2 [Compound 11f, 4-Trifluoromethyl-N-((2-((S)-1-phenylethyl)-(1S,4S,5R)-2-azabicyclo[3.2.1]octan-4-yl)benzenesulfonamide] | reduced cell viability | 31.4 ± 2.12 | – | – | more than 50% | 31.5 ± 2 | reduced cell viability | 17.3 ± 0.99 | reduced cell viability | 29.9 ± 1.5 | 31.52 ± 1.16 | reduced cell viability | 32 ± 1.37 | – | 0.98 | 42.7 ± 1.98 | 22.28 ± 1.45 | – | more than 50%
7 | Cc1ccc(-c2ccc(S(=O)(=O)NCC3C4CCC(C4)N3C(C)c3ccccc3)cc2)cc1 [Compound 10b, 4-(4-Tolyl)-N-((2-((S)-1-phenylethyl)-(1S,3R,4R)-2-azabicyclo[2.2.1]heptane-3-yl)benzenesulfonamide] | – | – | reduced cell viability below LD50 | 23.7 ± 1.27 | more than 50% | 20.4 ± 1.58 | – | – | – | 31.3 ± 1.32 | 28.9 ± 2.97 | – | 16.4 ± 2.34 | significantly reduced D425 cell viability as compared to HUVEC cells | 1.76 | 21.3 ± 1.23 | 12.88 ± 2.13 | – | –
